Source: patent publication US20230085307A1, “PYRIDAZINONE COMPOUND AND HERBICIDE” (NISSAN CHEMICAL CORPORATION, priority 2019, published 2023)

Experiments:
late watergrass = assay: Test Example 2: herbicidal activity, application during weed generation under submerged conditions (Table 17, symbol A); assay type: in vivo, late watergrass (Echinochloa oryzicola); conditions: AAH 320 g/ha; application during weed generation, submerged conditions
Outline: (§1)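 Effect on each weed is rated three weeks post-treatment, using the same scoring criteria as the preceding test. Plants grow from mixed-sown seed in flooded alluvial soil (4 cm water) at 25° C. to 30° C., and are treated at one to two leaves with diluted emulsion dropped onto the water.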

Japanese bulrush = assay: Test Example 2: herbicidal activity, application during weed generation under submerged conditions (Table 17, symbol B); assay type: in vivo, Japanese bulrush (Schoenoplectus juncoides); conditions: AAH 320 g/ha; application during weed generation, submerged conditions
Outline: as §1

oval-leafed pondweed = assay: Test Example 2: herbicidal activity, application during weed generation under submerged conditions (Table 17, symbol C); assay type: in vivo, oval-leafed pondweed (Monochoria vaginalis); conditions: AAH 320 g/ha; application during weed generation, submerged conditions
Outline: as §1

barnyard grass [1] = assay: Test Example 3: herbicidal effect by foliage application, Wagner pot (Table 18, symbol H); assay type: in vivo, barnyard grass (Echinochloa crus-galli)
Outline: (§2)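 Plants were sown in alluvial soil held under 0.1–0.5 cm standing water and grown 14 days in a greenhouse at 25–30 °C. An emulsifiable formulation, water-diluted to the set dose, was then sprayed onto the foliage, and effects were scored three weeks later using previously defined criteria.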

Chinese sprangletop = assay: Test Example 3: herbicidal effect by foliage application, Wagner pot (Table 18, symbol D); assay type: in vivo, chinese sprangletop (Leptochloa chinensis)
Outline: as §2

rice flat sedge = assay: Test Example 3: herbicidal effect by foliage application, Wagner pot (Table 18, symbol E); assay type: in vivo, rice flat sedge (Cyperus iria)
Outline: as §2

southern crabgrass [2] = assay: Test Example 4: herbicidal effect by soil treatment (Table 19, symbol F); assay type: in vivo, southern crabgrass (Digitaria ciliaris)
Outline: (§3)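 In this soil treatment, the formulated compound reached the seeds only through the soil: seeds were buried about 1.5 cm deep in sterilized diluvial soil, then the diluted emulsion was sprayed over the surface. After three weeks at 25° C. to 30° C. in a greenhouse, effects were graded on criteria from an earlier test.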

green foxtail [3] = assay: Test Example 4: herbicidal effect by soil treatment (Table 19, symbol G); assay type: in vivo, green foxtail (Setaria viridis)
Outline: as §3

barnyard grass [4] = assay: Test Example 4: herbicidal effect by soil treatment (Table 19, symbol H); assay type: in vivo, barnyard grass (Echinochloa crus-galli)
Outline: as §3

wild oat [5] = assay: Test Example 4: herbicidal effect by soil treatment (Table 19, symbol I); assay type: in vivo, wild oat (Avena fatua)
Outline: as §3

blackgrass [6] = assay: Test Example 4: herbicidal effect by soil treatment (Table 19, symbol J); assay type: in vivo, blackgrass (Alopecurus myosuroides)
Outline: as §3

Italian ryegrass [7] = assay: Test Example 4: herbicidal effect by soil treatment (Table 19, symbol K); assay type: in vivo, Italian ryegrass (Lolium multiflorum)
Outline: as §3

windgrass [8] = assay: Test Example 4: herbicidal effect by soil treatment (Table 19, symbol L); assay type: in vivo, windgrass (Apera spica-venti)
Outline: as §3

velvetleaf [9] = assay: Test Example 4: herbicidal effect by soil treatment (Table 19, symbol M); assay type: in vivo, velvetleaf (Abutilon theophrasti)
Outline: as §3

redroot pigweed [10] = assay: Test Example 4: herbicidal effect by soil treatment (Table 19, symbol N); assay type: in vivo, redroot pigweed (Amaranthus retroflexus)
Outline: as §3

lambsquarters [11] = assay: Test Example 4: herbicidal effect by soil treatment (Table 19, symbol O); assay type: in vivo, lambsquarters (Chenopodium album)
Outline: as §3

chickweed [12] = assay: Test Example 4: herbicidal effect by soil treatment (Table 19, symbol P); assay type: in vivo, common chickweed (Stellaria media)
Outline: as §3

persian speedwell [13] = assay: Test Example 4: herbicidal effect by soil treatment (Table 19, symbol R); assay type: in vivo, Persian speedwell (Veronica persica)
Outline: as §3

southern crabgrass [14] = assay: Test Example 5: herbicidal effect by foliage application, plastic box (Table 20, symbol F); assay type: in vivo, southern crabgrass (Digitaria ciliaris); conditions: foliage application, 320 g/ha, evaluated three weeks after application
Outline: (§4)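 Plants were sown into sterilized diluvial soil under about 1.5 cm cover and kept in a greenhouse at 25° C. to 30° C. Fourteen days on, foliage received an even spray of the diluted emulsion. Herbicidal or crop effect was judged three weeks afterwards.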

green foxtail [15] = assay: Test Example 5: herbicidal effect by foliage application, plastic box (Table 20, symbol G); assay type: in vivo, green foxtail (Setaria viridis); conditions: foliage application, 320 g/ha, evaluated three weeks after application
Outline: as §4

barnyard grass [16] = assay: Test Example 5: herbicidal effect by foliage application, plastic box (Table 20, symbol H); assay type: in vivo, barnyard grass (Echinochloa crus-galli); conditions: foliage application, 320 g/ha, evaluated three weeks after application
Outline: as §4

wild oat [17] = assay: Test Example 5: herbicidal effect by foliage application, plastic box (Table 20, symbol I); assay type: in vivo, wild oat (Avena fatua); conditions: foliage application, 320 g/ha, evaluated three weeks after application
Outline: as §4

blackgrass [18] = assay: Test Example 5: herbicidal effect by foliage application, plastic box (Table 20, symbol J); assay type: in vivo, blackgrass (Alopecurus myosuroides); conditions: foliage application, 320 g/ha, evaluated three weeks after application
Outline: as §4

Italian ryegrass [19] = assay: Test Example 5: herbicidal effect by foliage application, plastic box (Table 20, symbol K); assay type: in vivo, Italian ryegrass (Lolium multiflorum); conditions: foliage application, 320 g/ha, evaluated three weeks after application
Outline: as §4

windgrass [20] = assay: Test Example 5: herbicidal effect by foliage application, plastic box (Table 20, symbol L); assay type: in vivo, windgrass (Apera spica-venti); conditions: foliage application, 320 g/ha, evaluated three weeks after application
Outline: as §4

velvetleaf [21] = assay: Test Example 5: herbicidal effect by foliage application, plastic box (Table 20, symbol M); assay type: in vivo, velvetleaf (Abutilon theophrasti); conditions: foliage application, 320 g/ha, evaluated three weeks after application
Outline: as §4

redroot pigweed [22] = assay: Test Example 5: herbicidal effect by foliage application, plastic box (Table 20, symbol N); assay type: in vivo, redroot pigweed (Amaranthus retroflexus); conditions: foliage application, 320 g/ha, evaluated three weeks after application
Outline: as §4

lambsquarters [23] = assay: Test Example 5: herbicidal effect by foliage application, plastic box (Table 20, symbol O); assay type: in vivo, lambsquarters (Chenopodium album); conditions: foliage application, 320 g/ha, evaluated three weeks after application
Outline: as §4

chickweed [24] = assay: Test Example 5: herbicidal effect by foliage application, plastic box (Table 20, symbol P); assay type: in vivo, common chickweed (Stellaria media); conditions: foliage application, 320 g/ha, evaluated three weeks after application
Outline: as §4

persian speedwell [25] = assay: Test Example 5: herbicidal effect by foliage application, plastic box (Table 20, symbol R); assay type: in vivo, Persian speedwell (Veronica persica); conditions: foliage application, 320 g/ha, evaluated three weeks after application
Outline: as §4

[26] = amount of applied herbicide 320 g/ha

| Structure (SMILES) | herbicidal effect rating, A: late watergrass (late watergrass) | herbicidal effect rating, B: Japanese bulrush (Japanese bulrush) | herbicidal effect rating, C: oval-leafed pondweed (oval-leafed pondweed) | herbicidal effect on F: southern crabgrass (southern crabgrass [14]) | herbicidal effect on G: green foxtail (green foxtail [15]) | herbicidal effect on H: barnyard grass (barnyard grass [16]) | herbicidal effect on I: wild oat (wild oat [17]) | herbicidal effect on J: blackgrass (blackgrass [18]) | herbicidal effect on K: Italian ryegrass (Italian ryegrass [19]) | herbicidal effect on L: windgrass (windgrass [20]) | herbicidal effect on M: velvetleaf (velvetleaf [21]) | herbicidal effect on N: redroot pigweed (redroot pigweed [22]) | herbicidal effect on O: lambsquarters (lambsquarters [23]) | herbicidal effect on P: chickweed (chickweed [24]) | herbicidal effect on R: persian speedwell (persian speedwell [25]) | also measured |
| --- | --- | --- | --- | --- | --- | --- | --- | --- | --- | --- | --- | --- | --- | --- | --- | --- |
| Cc1nn(C)c(=O)c(-c2c(-c3ccc(OC4CCOC4)cc3)sc3ccc(F)cc23)c1O (stereo not drawn) [2-074] | 0 (Herbicidal rate of 5% or less (almost no effect)) | 3 (Herbicidal rate of 40% or more and less than 70%) | 0 (Herbicidal rate of 5% or less (almost no effect)) | 5 (Herbicidal rate of 90% or more (almost completely withered)) | 5 (Herbicidal rate of 90% or more (almost completely withered)) | 5 (Herbicidal rate of 90% or more (almost completely withered)) | 4 (Herbicidal rate of 70% or more and less than 90%) | 5 (Herbicidal rate of 90% or more (almost completely withered)) | 4 (Herbicidal rate of 70% or more and less than 90%) | 5 (Herbicidal rate of 90% or more (almost completely withered)) | 5 (Herbicidal rate of 90% or more (almost completely withered)) | 5 (Herbicidal rate of 90% or more (almost completely withered)) | 5 (Herbicidal rate of 90% or more (almost completely withered)) | 5 (Herbicidal rate of 90% or more (almost completely withered)) | 5 (Herbicidal rate of 90% or more (almost completely withered)) | herbicidal effect on H (barnyard grass), rating 0-5 (barnyard grass [1]; 320 g/ha): 5 (Herbicidal rate of 90% or more (almost completely withered)); herbicidal effect on D (Chinese sprangletop), rating 0-5 (Chinese sprangletop; 320 g/ha): 5 (Herbicidal rate of 90% or more (almost completely withered)); herbicidal effect on E (rice flat sedge), rating 0-5 (rice flat sedge; 320 g/ha): 5 (Herbicidal rate of 90% or more (almost completely withered)); herbicidal effect rating, F: southern crabgrass (southern crabgrass [2]; 320 g/ha): 5 (Herbicidal rate of 90% or more (almost completely withered)); herbicidal effect rating, G: green foxtail (green foxtail [3]; 320 g/ha): 5 (Herbicidal rate of 90% or more (almost completely withered)); herbicidal effect rating, H: barnyard grass (barnyard grass [4]; 320 g/ha): 5 (Herbicidal rate of 90% or more (almost completely withered)); herbicidal effect rating, I: wild oat (wild oat [5]; 320 g/ha): 0 (Herbicidal rate of 5% or less (almost no effect)); herbicidal effect rating, J: blackgrass (blackgrass [6]; 320 g/ha): 1 (Herbicidal rate of 5% or more and less than 20%); herbicidal effect rating, K: Italian ryegrass (Italian ryegrass [7]; 320 g/ha): 3 (Herbicidal rate of 40% or more and less than 70%); herbicidal effect rating, L: windgrass (windgrass [8]; 320 g/ha): 3 (Herbicidal rate of 40% or more and less than 70%); herbicidal effect rating, M: velvetleaf (velvetleaf [9]; 320 g/ha): 3 (Herbicidal rate of 40% or more and less than 70%); herbicidal effect rating, N: redroot pigweed (redroot pigweed [10]; 320 g/ha): 5 (Herbicidal rate of 90% or more (almost completely withered)); herbicidal effect rating, O: lambsquarters (lambsquarters [11]; 320 g/ha): 5 (Herbicidal rate of 90% or more (almost completely withered)); herbicidal effect rating, P: chickweed (chickweed [12]; 320 g/ha): 3 (Herbicidal rate of 40% or more and less than 70%); herbicidal effect rating, R: persian speedwell (persian speedwell [13]; 320 g/ha): 5 (Herbicidal rate of 90% or more (almost completely withered)) |
| COc1ccc(-c2sc3ccc(Cl)cc3c2-c2c(O)c(C)nn(C)c2=O)cc1F [2-117] | 0 (Herbicidal rate of 5% or less (almost no effect)) | 2 (Herbicidal rate of 20% or more and less than 40%) | 3 (Herbicidal rate of 40% or more and less than 70%) | 0 (Herbicidal rate of 5% or less (almost no effect)) | 0 (Herbicidal rate of 5% or less (almost no effect)) | 0 (Herbicidal rate of 5% or less (almost no effect)) | 0 (Herbicidal rate of 5% or less (almost no effect)) | 0 (Herbicidal rate of 5% or less (almost no effect)) | 0 (Herbicidal rate of 5% or less (almost no effect)) | 0 (Herbicidal rate of 5% or less (almost no effect)) | 4 (Herbicidal rate of 70% or more and less than 90%) | 3 (Herbicidal rate of 40% or more and less than 70%) | 3 (Herbicidal rate of 40% or more and less than 70%) | 5 (Herbicidal rate of 90% or more (almost completely withered)) | 5 (Herbicidal rate of 90% or more (almost completely withered)) | herbicidal effect on H: barnyard grass (barnyard grass [1]; [26]): 3 (Herbicidal rate of 40% or more and less than 70%); herbicidal effect on D: Chinese sprangletop (Chinese sprangletop; [26]): 3 (Herbicidal rate of 40% or more and less than 70%); herbicidal effect on E: rice flat sedge (rice flat sedge; [26]): 5 (Herbicidal rate of 90% or more (almost completely withered)); F: southern crabgrass, herbicidal effect rating (southern crabgrass [2]; [26]): 0 (Herbicidal rate of 5% or less (almost no effect)); G: green foxtail, herbicidal effect rating (green foxtail [3]; [26]): 0 (Herbicidal rate of 5% or less (almost no effect)); H: barnyard grass, herbicidal effect rating (barnyard grass [4]; [26]): 0 (Herbicidal rate of 5% or less (almost no effect)); I: wild oat, herbicidal effect rating (wild oat [5]; [26]): 0 (Herbicidal rate of 5% or less (almost no effect)); J: blackgrass, herbicidal effect rating (blackgrass [6]; [26]): 0 (Herbicidal rate of 5% or less (almost no effect)); K: Italian ryegrass, herbicidal effect rating (Italian ryegrass [7]; [26]): 0 (Herbicidal rate of 5% or less (almost no effect)); L: windgrass, herbicidal effect rating (windgrass [8]; [26]): 0 (Herbicidal rate of 5% or less (almost no effect)); M: velvetleaf, herbicidal effect rating (velvetleaf [9]; [26]): 0 (Herbicidal rate of 5% or less (almost no effect)); N: redroot pigweed, herbicidal effect rating (redroot pigweed [10]; [26]): 1 (Herbicidal rate of 5% or more and less than 20%); O: lambsquarters, herbicidal effect rating (lambsquarters [11]; [26]): 3 (Herbicidal rate of 40% or more and less than 70%); P: chickweed, herbicidal effect rating (chickweed [12]; [26]): 0 (Herbicidal rate of 5% or less (almost no effect)); R: persian speedwell, herbicidal effect rating (persian speedwell [13]; [26]): 1 (Herbicidal rate of 5% or more and less than 20%) |
